# Results as given in patent US20230332103A1, “Methods and Compositions for Generating Human Forebrain Neural Progenitor Cells and for Maturation Thereof to Parvalbumin+ Interneurons” (Trailhead Biosystems Inc., priority 2021, published 2023).
# “Also recorded” adds a separate entry of the source.
# What was measured:
# [1] = test system: stage 4 neural stem cells; experiment: factor criticality analysis of stage 5 recipe; type: cell-based, human; conditions: for effect on expression of somatostatin: FIG. 28; for contribution to expression of PVALB (Parvalbumin): FIG. 28-30
# Protocol: To assess the impact of elimination of each validated factor, we again used dynamic profile analysis and compared the expression level of genes of interest in the absence of each finalized factor while others are present.
# In the stage 5 recipe, each of seven finalized factors were removed while other factors were kept present and expression levels of PVALB and SST were assessed compared to the presence of all seven factors. […] 2-phospho-L-ascorbic acid, BDNF, IGF-1 were included in the stage 5 recipe (FIG. 28). […] Others were also found to increase the expression of somatostatin that was SST interneuron marker. So, they are excluded from the recipe and N2 was included in the stage 5 recipe (FIG. 29). […] Sodium pyruvate was included in the stage 5 recipe (FIG. 30).
# [2] = test system: cells after termination of stage 4 treatment; experiment: HD-DoE 8-factor experiment for stage 5 recipe (JQ1, Indolactam-V, Oleic acid, BDNF, IGF-1, 2-phospho-L-Ascorbic acid, Albumax, MK2206), optimized for PVALB; type: cell-based, human; conditions: for factor contribution on expression of PVALB: important input for maximum expression of PVALB, FIG. 21; for impact on expression of PVALB: model maximized for PVALB / dynamic profile, FIG. 21 and 22
# Source text: To further guide the differentiation of forebrain-committed neural stem cells to PVALB interneuron cells at stage 5, we performed a HD-DoE experiment for 3 days after termination of stage 4 treatment. At this time, we focused on maximum expression of PVALB that was expressed in Parvalbumin (+) interneurons and minimum expression of Somatostatin that is another type of interneurons. This 8-factor experiment included JQ1, Indolactam-V, Oleic acid, BDNF, IGF-1, 2-phospho-L-Ascorbic acid, Albumax, MK2206. […] Using dynamic profile analysis, we modified the model to achieve the maximum expression level of PVALB simultaneously and therefore 2-phospho-L-ascorbic acid, BDNF, IGF1 were included while MK2206, Albumax, and JQ1 are excluded (FIG. 22). Considering the model at different optimization settings for maximum differentiation of cells toward ventral forebrain, the recipe for stage 5 of differentiation included BDNF, IGF-1, 2-phospho-L-ascorbic acid from this HD-Doe experiment.
# [3] = test system: forebrain-committed neural stem cells (stage 1 neural stem cells); experiment: factor criticality analysis (dynamic profile analysis) of stage 2 recipe; type: cell-based, human; conditions: stage 2 recipe, other three factors present; for expression level of PAX6 in the absence of the effector: 0 with all four factors; for expression level of NKX2-2 in the absence of the effector: 100 with all four factors; for expression level of NKX2-1 in the absence of the effector: 5000 with all four factors
# Protocol: (§1) To assess the impact of the elimination of each validated factor, dynamic profile analysis was used and compared the expression level of genes of interest in absence of each finalized factor while others are present.
# In the stage 2 recipe, each of the four finalized factors were removed while the other three factors remained present and expression levels of NKX2-1, PAX6 and NKX2-2 were assessed compared to presence of all four factors. The results are summarized in FIG. 13A-B. Absence of PD0325901 reduced the levels of NKX2-1 and NKX2-2 while increasing PAX6 from 5000 to 3200, 100 to 0 and 0 to 5000, respectively. […] Removing XAV939 reduced the levels of NKX2-1 from 5000 to 3000, while increasing both PAX6 and NKX2-2 to 10000 and 200, respectively. Another observation was the interaction between XAV939 and Purmorphamine. In the absence of XAV939, the impact of Purmorphamine on NKX2-1 became negative and, as it is shown in interaction plot of FIG. 14, the level of NKX2-1 is higher when both factors are present.
# [4] = test system: forebrain-committed neural stem cells (stage 1 neural stem cells); experiment: HD-DoE 12-factor experiment for stage 2 recipe, optimized for NKX2-1; type: cell-based, human; conditions: model maximized for NKX2-1 / dynamic profile, FIG. 7 and 8
# Protocol: To further guide the differentiation of forebrain-committed neural stem cells to ventral forebrain neural stem cells at stage 2, a HD-DoE experiment was performed for 3 days after termination of stage 1 treatment. At this time, we focused on maximum expression of NKX2-1 that is expressed in ventral forebrain region and minimum expression of PAX6 that is expressed in dorsal forebrain region. This 12-factor experiment included LDN193189, BMP7, PD0325901, MK2206, A8301, XAV939, CHIR99021, Purmorphamine, SANT-1, AGN193109, TTNPB and GSI-XX.
# [5] = test system: human pluripotent stem cells; experiment: HD-DoE 12-factor experiment for stage 1 recipe, gene expression by quantitative PCR after 3 days; type: cell-based; conditions: for factor contribution on expression of OTX2: model of maximum expression of OTX2
# Source text: This example utilizes a method of High-Dimensional Design of Experiments (HD-DoE), as previously described in Bukys et al. (2020) […] 23:101346. The method employs computerized design geometries to simultaneously test multiple process inputs and offers mathematical modeling of a deep effector/response space. The method allows for finding combinatorial signaling inputs that control a complex process, such as during cell differentiation. It allows testing of multiple plausible critical process parameters, as such parameters impact output responses, such as gene expression. Because gene expression provides hallmark features of the phenotype of, for example, a human cell, the method can be applied to identify, and understand, which signaling pathways control cell fate. In the current example, the HD-DOE method was applied with the intent to find conditions for induction of […] neural progenitor-expressed genes, directly from the pluripotent stem cell state. To develop the recipe for each stage, the impact of agonists and antagonists of multiple signaling pathways (herein called effectors) on the expression of two sets of 53 pre-selected genes, after a 3-day treatment, has been tested and modeled. These effectors are small molecules or proteins that are commonly used during stepwise differentiation of stem cells to specific fates. Choice of the effectors were based on current literature on neural induction in forebrain region of developing brain and differentiation of stem cells to neural progenitors. To test the effectors, experiments with at least 8 factors were designed that can assess the response of cells to 48 or more different combinations of effectors in a range of concentrations. To analyze the models, we focused on expression of genes involved in development and patterning of the anterior neuroectoderm and forebrain including OTX2 (Hoch et al. (2015) Cell Reports 12:482-494), SIX3 (Lagutin et al. (2003) Genes & Development 17:368-379) and FEZF2 (Zhang et al. (2014) Development 141:4794-[…]). At later stages we focused on dorsoventral patterning of telencephalon and gene expressed in ventral forebrain including NKX2-1 and absence of PAX6 which is a dorsal forebrain marker (Stoykova et al. (2000) J. Neurosci. 20:8042-8050). The impact of each effector on gene expression level is defined by a parameter called factor contribution that is calculated for each effector during the modeling. To identify the recipe for stage 1 of differentiation, 96 different combinations of effectors generated using Design-of-Experiments compression through D-optimality were robotically prepared. The effector combinations were prepared in a basal media and were subsequently added to the cells, which were then allowed to differentiate. Three days later RNA extraction was performed, and gene expression was obtained using quantitative PCR analysis. […] Solutions within the tested space could then be explored to address desirability. Optimizing for maximal expression of SIX3 at 3300 and FEZF2 1355 expression values led to robust solutions. This model was derived from testing 12 effectors including AGN193109, LDN193189, CHIR99021, XAV939, IGF2, Purmorphamine, 4-oxo-RA, TTNPB, SR11237, FGF8, PD0325901 and […]. […] The model was also optimized for maximum expression of FEZF2 separately at 3576 expression value to find any additional factors that can boost expression of forebrain genes. […] To find the set of factors that have the potential to optimize all 3 genes in this experiment, a new assessment was done through dynamic profile analysis with focus on maximal expression of OTX2, FEZF2 and SIX3.
# [6] = test system: human pluripotent stem cells; experiment: factor criticality analysis (dynamic profile analysis) of stage 1 recipe; type: cell-based; parameters: unit not given here; conditions: other five factors present; for expression level of FEZF2 when the effector is removed: 2000 with all six factors; for expression level of SIX3 when the effector is removed: 3000 with all six factors; for expression level of OTX2 when the effector is removed: 5500 with all six factors
# Protocol: as §1
# In the stage 1 recipe, each of the six finalized factors were removed individually while the other five factors were present and expression levels of forebrain genes was assessed compared to the presence of all six factors together. The results are summarized in FIG. 11A-B. When LDN193189 was removed, expression levels of FEZF2, OTX2 and SIX3 were decreased drastically from 2000 to 1000, 5500 to 4000 and 3000 to 0, respectively. […] When Purmorphamine was removed, levels of FEZF2 and SIX3 were decreased to 1000 and below 3000, while levels of OTX2 increased to 6500.
# [7] = test system: human pluripotent stem cells; experiment: additional HD-DoE experiment for stage 1 (forebrain differentiation from pluripotency), optimized for FEZF2; type: cell-based; conditions: for impact on expression of FEZF2: dynamic profile, FIG. 6; for factor contribution on expression of FEZF2: positive impact, additional stage 1 experiment optimized for FEZF2, FIG. 5
# Protocol: To identify the recipe for stage 1 of differentiation, 96 different combinations of effectors generated using Design-of-Experiments compression through D-optimality were robotically prepared. The effector combinations were prepared in a basal media and were subsequently added to the cells, which were then allowed to differentiate. Three days later RNA extraction was performed, and gene expression was obtained using quantitative PCR analysis. The data were normalized and modeled using partial least squares regression analysis to the effector design, resulting in the generation of gene-specific models, which after model tuning for maximal Q2 predictive power, provided explanation of the effectors ability to control the expression of individual genes, combinatorially, and individually. Solutions within the tested space could then be explored to address desirability.
# To further enhance the conditions for forebrain differentiation from pluripotency, an additional HD-DoE experiment was performed. Additional gene regulatory models were obtained that were used for preparation of the differentiation protocol. The factors in this experiment included LDN193189, PD173074, BLU9931, Purmorphamine, SC79, MK2206, ZM336372, PD0325901, CHIR99021, XAV939, UCLA-GP130, Tofacitinib and GO6983. […] Dynamic profile analysis was also used to assess the interaction between the effectors.
molecule,measurement,setting,value
O=C1O[C@H]([C@@H](O)CO)C(O)=C1OP(=O)(O)O [2-phospho-L-ascorbic acid],effect on expression of somatostatin,[1],did not change
same,contribution to expression of PVALB (Parvalbumin),[1],positive contribution
same,factor contribution on expression of PVALB,[2],15.04
same,impact on expression of PVALB,[2],increase its expression level
same,impact on expression of PVALB,[2]; listed as 2-phospho-L-Ascorbic acid,positive impact
CC(C)[C@H]1C(=O)N[C@H](CO)Cc2c[nH]c3cccc(c23)N1C [Indolactam-V],impact on expression of PVALB,[2],increase its expression level; also recorded: positive impact
"CCCCCCCC/C=C\CCCCCCCC(=O)OC[C@@H](O)COP(=O)(O)O [O-LPA, 1-Oleoyl lysophosphatidic acid]",contribution to expression of GAD1,[1]; FIG. 31,contribute to the expression
same,contribution to expression of LHX6,[1]; FIG. 31,contribute to the expression
CCCCCCCC/C=C\CCCCCCCC(=O)O [Oleic acid],impact on expression of PVALB,[2],increase its expression level; also recorded: positive impact
O=C(NOC[C@H](O)CO)c1ccc(F)c(F)c1Nc1ccc(I)cc1F [PD0325901],expression level of PAX6 in the absence of the effector,[3],5000
same,expression level of NKX2-2 in the absence of the effector,[3],0
same,expression level of NKX2-1 in the absence of the effector,[3],3200
same,impact on expression of NKX2-1,[4],increase its expression level; also recorded: Positive impact
same,factor contribution on expression of OTX2,[5]; positive impact,low
same,factor contribution on expression of FEZF2,"[5]; positive impact, model optimized for maximum expression of FEZF2",10
same,expression level of FEZF2 when the effector is removed,[6],drop
same,expression level of SIX3 when the effector is removed,[6],did not have a significant impact
same,expression level of OTX2 when the effector is removed,[6],did not have a significant impact
same,impact on expression of FEZF2,[7],positive impact
same,factor contribution on expression of FEZF2,[7],15
Oc1nc(-c2ccc(C(F)(F)F)cc2)nc2c1CSCC2 [XAV939],expression level of PAX6 in the absence of the effector,[3],10000
same,expression level of NKX2-2 in the absence of the effector,[3],200
same,expression level of NKX2-1 in the absence of the effector,[3],3000
same,impact on expression of NKX2-1,[4],increase its expression level; also recorded: Positive impact
same,impact on expression of OTX2,"[5]; dynamic profile analysis, FIG. 4",positive impact
same,factor contribution on expression of OTX2,[5]; positive impact,low
same,factor contribution on expression of SIX3,"[5]; positive impact, model optimized for maximal expression of SIX3, 3-day treatment",5
same,expression level of FEZF2 when the effector is removed,[6],1700
same,expression level of SIX3 when the effector is removed,[6],1000
same,expression level of OTX2 when the effector is removed,[6],5000
same,impact on expression of FEZF2,[7],positive impact
same,factor contribution on expression of FEZF2,[7],12
"BDNF: brain-derived neurotrophic factor, ligand of BDNFR signaling pathway (protein, UniProt P23560 19-247, looked up) Neurotrophic factor BDNF …: APMKEANIRGQGGLAYPGVRTHGTLESVNGPKAGSRGLTSLADTFEHVIEELLDEDQKVRPNEENNKDADLYTSRVMLSSQVPLEPPLLFLLEEYKNYLDAANMSMRVRRHSDPARRGELSVCDSISEWVTAADKKTAVDMSGGTVTVLEKVPVSKGQLKQYFYETKCNPMGYTKEGCRGIDKRHWNSQCRTTQSYVRALTMDSKKRIGWRFIRIDTSCVCTLTIKRGR",effect on expression of somatostatin,[1],did not change
same,contribution to expression of PVALB (Parvalbumin),[1],positive contribution
same,factor contribution on expression of PVALB,[2],14.6
same,impact on expression of PVALB,[2],increase its expression level; also recorded: positive impact
